Test results from a melting point compilation (Tetko et al.).

Compound: O=C(CCl)Nc1cc2ccccc2cc1C(=O)O
- melting point: 223 to 225 °C

Compound: O=S(=O)(c1ccc(Cl)nc1)N1CCOCC1
- melting point: 143 to 145 °C

Compound: COC(=O)c1ccc(NC(C)=O)c(C)c1
- melting point: 132 to 134 °C

Compound: O=C(Nc1ccc(Br)cc1)C1CCNCC1
- melting point: 209 to 211 °C

Compound: Nc1cccc(COc2ccc3c(c2)OCO3)c1
- melting point: 67 to 69 °C

Compound: COc1ccc2nc(CCl)[nH]c2n1
- melting point: 151 to 153 °C

Compound: Cc1cc(C)n(CC(=O)O)n1
- melting point: 187 to 189 °C

Compound: O=C(O)C=Cc1cc(Br)ccc1OCc1ccccc1Cl
- melting point: 192 to 194 °C

Compound: N#Cc1c[nH]c2ccc(Cl)cc2c1=O
- melting point: 381 to 383 °C

Compound: CCOC(=O)C(=O)c1ncc(Cl)n1C
- melting point: 46 to 48 °C

Compound: Cc1ccc(Oc2ccc(O)cc2)cc1
- melting point: 71 to 73 °C

Compound: COc1ccc(-c2noc(CCCC(=O)O)n2)cc1
- melting point: 109 to 111 °C

Compound: O=C1NS(=O)(=O)c2ncccc21
- melting point: 199 to 201 °C

Compound: OCc1ccc(CCl)cc1
- melting point: 55 to 57 °C

Compound: N#Cc1ccc(OCC(=O)NN)cc1
- melting point: 180 to 182 °C

Compound: Cc1c(C(=O)O)cccc1S(=O)(=O)Cl
- melting point: 169 to 171 °C

Compound: Cn1c(C(=O)O)cc2c(=O)n3ccccc3nc21
- melting point: 288 to 290 °C

Compound: Clc1ncnc2c1oc1ccccc12
- melting point: 144 to 146 °C

Compound: Cc1nn(C(C)C)c(C)c1N
- melting point: 58 to 60 °C

Compound: CC1=NN(c2cc(C)ccc2C)C(=O)C1
- melting point: 164 to 166 °C

Compound: Cc1cc(S(=O)(=O)Cl)ccc1[N+](=O)[O-]
- melting point: 48 to 50 °C

Compound: COC(=O)c1oc2ccccc2c1CBr
- melting point: 104 to 106 °C

Compound: CCOC(=O)c1sc(-c2ccc(OC)cc2)cc1N
- melting point: 120 to 122 °C

Compound: Cc1nn(-c2ccccc2)c2sc(C(=O)O)cc12
- melting point: 234 to 236 °C

Compound: COc1cc(CCl)ccc1OCc1cccc(C#N)c1
- melting point: 95 to 97 °C

Compound: Nc1nncc(-c2cc(Cl)ccc2Cl)n1
- melting point: 175 to 177 °C

Compound: CN1CCCCC/C1=N/S(=O)(=O)c1ccc(N)cc1
- melting point: 223 to 225 °C

Compound: NCC(O)COc1cccc(C(F)(F)F)c1 (stereo unspecified)
- melting point: 66 to 68 °C

Compound: O=[N+]([O-])c1cc(S(=O)(=O)Nc2ccc(Br)cc2)ccc1Cl
- melting point: 123 to 125 °C

Compound: CCOC(=O)C(C#N)C(N)=O (stereo unspecified)
- melting point: 152 to 154 °C

Compound: CC(C)(C)OC(=O)N1CCCNC(=O)C1
- melting point: 112 to 114 °C

Compound: N#CC1(NC(=O)CCl)CCCCC1
- melting point: 130 to 132 °C

Compound: NC(=O)C1CCCN(c2ccc(C(=O)O)cc2)C1 (stereo unspecified)
- melting point: 259 to 261 °C

Compound: Cc1ccc(C)c(-n2ncc(N)c2C)c1
- melting point: 62 to 64 °C

Compound: O=c1[nH]nc2cnccn12
- melting point: 229 to 231 °C

Compound: COC(=O)Cc1ccc(Oc2ccnc(C#N)c2)cc1
- melting point: 120 to 122 °C

Compound: CN1CCN(c2ccc(CO)cc2F)CC1
- melting point: 87 to 89 °C

Compound: O=C1CCSc2cc(F)c(F)cc21
- melting point: 93 to 95 °C

Compound: COc1ccc(NC(=O)Oc2ccccc2)c([N+](=O)[O-])c1
- melting point: 43 to 48 °C

Compound: Fc1ccccc1-c1nnc(S)[nH]1
- melting point: 154 to 156 °C

Compound: Cc1cc2c(Cl)nccc2o1
- melting point: 38 to 40 °C

Compound: Cc1nn(-c2ncccn2)c(N)c1Br
- melting point: 159 to 161 °C

Compound: O=C1NC(=O)C2(CCC2)N1
- melting point: 222 to 224 °C

Compound: NC(=S)c1cccc(-c2nnc(N)o2)c1
- melting point: 259 to 261 °C

Compound: O=c1cc(CS)nc2ccccn12
- melting point: 119 to 121 °C

Compound: O=C(O)c1cccc(-n2cc(Br)cn2)c1
- melting point: 195 to 197 °C

Compound: CC1CCC(Cn2c(N)cc(=O)[nH]c2=O)CC1 (stereo unspecified)
- melting point: 239 to 241 °C

Compound: CCN(CC)S(=O)(=O)c1ccc(Br)c(C(=O)O)c1
- melting point: 141 to 145 °C

Compound: CS(=O)(=O)Cc1cc(F)ccc1N
- melting point: 126 to 128 °C

Compound: CC(=O)Nc1ccc(Br)cc1N
- melting point: 155 to 157 °C

Compound: O=C(Cn1cc(C(=O)O)cn1)NC1CCCCC1
- melting point: 247 to 249 °C

Compound: CCNc1ncccc1N
- melting point: 108 to 110 °C

Compound: COC1(C(=O)O)CCN(C(=O)OC(C)(C)C)CC1
- melting point: 96 to 98 °C

Compound: Cc1ccc(NC(=O)CO)c(Cl)c1
- melting point: 90 to 92 °C

Compound: Cc1[nH]c2ccccc2c1C(=O)C(C)Cl (stereo unspecified)
- melting point: 133 to 135 °C

Compound: CCOC(=O)c1sc2nc(C(C)Cl)[nH]c(=O)c2c1C (stereo unspecified)
- melting point: 167 to 169 °C
